PubChem BioAssay AID2060609 (Molecular Pharmacology Branch, DTP, NCI, 2025)

Tested on: 855422-203-R-J1-PDC complex spheroids, viability
Experiment: Anticancer human tumor 855422-203-R-J1-PDC patient-derived bladder carcinoma cell line growth inhibition [CLK]
Conditions: for IC50: curve of first compound; for viability, T/C: stronger effect = lower value
Method in brief: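 Patient-derived tumor cells grown as complex spheroids with HUVEC endothelial cells and mesenchymal stem cells, treated with drug combinations. Concentrations descend in half-log steps from near clinical Cmax, or from 10 microM if Cmax unknown.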

[1] = second compound 0.0316 µM, first compound 0.0316 µM
[2] = second compound 0.0316 µM, first compound 0.1 µM
[3] = second compound 0.0316 µM, first compound 0.316 µM
[4] = second compound 0.0316 µM, first compound 1 µM
[5] = second compound 0.0316 µM, first compound 3.16 µM
[6] = second compound 0.0316 µM, first compound 10 µM
[7] = second compound 0.1 µM, first compound 0.0316 µM
[8] = second compound 0.1 µM, first compound 0.1 µM
[9] = second compound 0.1 µM, first compound 0.316 µM
[10] = second compound 0.1 µM, first compound 1 µM
[11] = second compound 0.1 µM, first compound 3.16 µM
[12] = second compound 0.1 µM, first compound 10 µM
[13] = second compound 0.316 µM, first compound 0.0316 µM
[14] = second compound 0.316 µM, first compound 0.1 µM
[15] = second compound 0.316 µM, first compound 0.316 µM
[16] = second compound 0.316 µM, first compound 1 µM
[17] = second compound 0.316 µM, first compound 3.16 µM
[18] = second compound 0.316 µM, first compound 10 µM
[19] = second compound 1 µM, first compound 0.0316 µM
[20] = second compound 1 µM, first compound 0.1 µM
[21] = second compound 1 µM, first compound 0.316 µM
[22] = second compound 1 µM, first compound 1 µM
[23] = second compound 1 µM, first compound 3.16 µM
[24] = second compound 1 µM, first compound 10 µM
[25] = second compound 3.16 µM, first compound 0.0316 µM
[26] = second compound 3.16 µM, first compound 0.1 µM
[27] = second compound 3.16 µM, first compound 0.316 µM
[28] = second compound 3.16 µM, first compound 1 µM
[29] = second compound 3.16 µM, first compound 3.16 µM
[30] = second compound 3.16 µM, first compound 10 µM
[31] = second compound 10 µM, first compound 0.0316 µM
[32] = second compound 10 µM, first compound 0.1 µM
[33] = second compound 10 µM, first compound 0.316 µM
[34] = second compound 10 µM, first compound 1 µM
[35] = second compound 10 µM, first compound 3.16 µM
[36] = second compound 10 µM, first compound 10 µM
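Also: spheroids exposed to drugs for seven days before readout.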
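For viability, T/C in this document: 100% = DMSO vehicle control wells.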

CC(C)CC(NC(=O)C(Cc1ccccc1)NC(=O)c1cnccn1)B(O)O (stereo unspecified) + CN1CCN(c2cc(C(=O)Nc3cc4cc(-c5cnn(C)c5)ccc4cn3)ccn2)CC1
IC50 (second compound 0.0316 µM): < 0.949 nM
IC50 (second compound 0.1 µM): < 0.949 nM
IC50 (second compound 0.316 µM): < 0.949 nM
IC50 (second compound 1 µM): < 0.949 nM
IC50 (second compound 3.16 µM): < 0.949 nM
IC50 (second compound 10 µM): < 0.949 nM
viability, T/C (second compound 0.0316 µM, first compound 0.000949 µM): 2.28%
viability, T/C (second compound 0.0316 µM, first compound 0.003 µM): 0.31%
viability, T/C (second compound 0.0316 µM, first compound 0.00949 µM): 0.27%
viability, T/C (second compound 0.0316 µM, first compound 0.03 µM): 0.43%
viability, T/C (second compound 0.0316 µM, first compound 0.0949 µM): 0.41%
viability, T/C (second compound 0.0316 µM, first compound 0.3 µM): 0.27%
viability, T/C (second compound 0.1 µM, first compound 0.000949 µM): 2.61%
viability, T/C (second compound 0.1 µM, first compound 0.003 µM): 0.37%
viability, T/C (second compound 0.1 µM, first compound 0.00949 µM): 0.29%
viability, T/C (second compound 0.1 µM, first compound 0.03 µM): 0.43%
viability, T/C (second compound 0.1 µM, first compound 0.0949 µM): 0.35%
viability, T/C (second compound 0.1 µM, first compound 0.3 µM): 0.28%
viability, T/C (second compound 0.316 µM, first compound 0.000949 µM): 0.57%
viability, T/C (second compound 0.316 µM, first compound 0.003 µM): 0.22%
viability, T/C (second compound 0.316 µM, first compound 0.00949 µM): 0.27%
viability, T/C (second compound 0.316 µM, first compound 0.03 µM): 0.27%
viability, T/C (second compound 0.316 µM, first compound 0.0949 µM): 1.06%
viability, T/C (second compound 0.316 µM, first compound 0.3 µM): 0.19%
viability, T/C (second compound 1 µM, first compound 0.000949 µM): 0.21%
viability, T/C (second compound 1 µM, first compound 0.003 µM): 0.19%
viability, T/C (second compound 1 µM, first compound 0.00949 µM): 0.12%
viability, T/C (second compound 1 µM, first compound 0.03 µM): 0.19%
viability, T/C (second compound 1 µM, first compound 0.0949 µM): 0.16%
viability, T/C (second compound 1 µM, first compound 0.3 µM): 0.16%
viability, T/C (second compound 3.16 µM, first compound 0.000949 µM): 0.36%
viability, T/C (second compound 3.16 µM, first compound 0.003 µM): 0.15%
viability, T/C (second compound 3.16 µM, first compound 0.00949 µM): 1.95%
viability, T/C (second compound 3.16 µM, first compound 0.03 µM): 0.11%
viability, T/C (second compound 3.16 µM, first compound 0.0949 µM): 0.78%
viability, T/C (second compound 3.16 µM, first compound 0.3 µM): 0.11%
viability, T/C (second compound 10 µM, first compound 0.000949 µM): 0.29%
viability, T/C (second compound 10 µM, first compound 0.003 µM): 0.19%
viability, T/C (second compound 10 µM, first compound 0.00949 µM): 2.1%
viability, T/C (second compound 10 µM, first compound 0.03 µM): 0.2%
viability, T/C (second compound 10 µM, first compound 0.0949 µM): 0.22%
viability, T/C (second compound 10 µM, first compound 0.3 µM): 0.32%

CC1COCCN1c1cc(C2(S(C)(=N)=O)CC2)nc(-c2ccnc3[nH]ccc23)n1 (stereo unspecified) + CN1CCN(c2cc(C(=O)Nc3cc4cc(-c5cnn(C)c5)ccc4cn3)ccn2)CC1
IC50 (second compound 0.0316 µM): 2250 nM
IC50 (second compound 0.1 µM): 1850 nM
IC50 (second compound 0.316 µM): < 31.6 nM
IC50 (second compound 1 µM): < 31.6 nM
IC50 (second compound 3.16 µM): < 31.6 nM
IC50 (second compound 10 µM): < 31.6 nM
viability, T/C [1]: 103%
viability, T/C [2]: 117%
viability, T/C [3]: 89.6%
viability, T/C [4]: 93%
viability, T/C [5]: 32%
viability, T/C [6]: 10.6%
viability, T/C [7]: 70.6%
viability, T/C [8]: 91%
viability, T/C [9]: 80.3%
viability, T/C [10]: 80.1%
viability, T/C [11]: 24%
viability, T/C [12]: 12.2%
viability, T/C [13]: 9.48%
viability, T/C [14]: 14%
viability, T/C [15]: 7.7%
viability, T/C [16]: 6%
viability, T/C [17]: 5.18%
viability, T/C [18]: 3.25%
viability, T/C [19]: 0.34%
viability, T/C [20]: 0.27%
viability, T/C [21]: 1.14%
viability, T/C [22]: 0.17%
viability, T/C [23]: 0.14%
viability, T/C [24]: 0.19%
viability, T/C [25]: 0.75%
viability, T/C [26]: 0.61%
viability, T/C [27]: 0.62%
viability, T/C [28]: 0.51%
viability, T/C [29]: 0.85%
viability, T/C [30]: 0.37%
viability, T/C [31]: 0.44%
viability, T/C [32]: 0.31%
viability, T/C [33]: 0.9%
viability, T/C [34]: 0.36%
viability, T/C [35]: 1.72%
viability, T/C [36]: 0.63%

O=C(c1cc(Cc2n[nH]c(=O)c3ccccc23)ccc1F)N1CCN(C(=O)C2CC2)CC1 + CN1CCN(c2cc(C(=O)Nc3cc4cc(-c5cnn(C)c5)ccc4cn3)ccn2)CC1
IC50 (second compound 0.0316 µM): > 10000 nM
IC50 (second compound 0.1 µM): > 10000 nM
IC50 (second compound 0.316 µM): < 31.6 nM
IC50 (second compound 1 µM): < 31.6 nM
IC50 (second compound 3.16 µM): < 31.6 nM
IC50 (second compound 10 µM): < 31.6 nM
viability, T/C [1]: 97.5%
viability, T/C [2]: 93.4%
viability, T/C [3]: 94.5%
viability, T/C [4]: 119%
viability, T/C [5]: 106%
viability, T/C [6]: 91.2%
viability, T/C [7]: 79.5%
viability, T/C [8]: 82%
viability, T/C [9]: 86.8%
viability, T/C [10]: 89.6%
viability, T/C [11]: 83.5%
viability, T/C [12]: 80.8%
viability, T/C [13]: 7.7%
viability, T/C [14]: 9.07%
viability, T/C [15]: 12.2%
viability, T/C [16]: 13.9%
viability, T/C [17]: 9.53%
viability, T/C [18]: 7.3%
viability, T/C [19]: 0.24%
viability, T/C [20]: 0.27%
viability, T/C [21]: 0.24%
viability, T/C [22]: 0.2%
viability, T/C [23]: 2.03%
viability, T/C [24]: 0.16%
viability, T/C [25]: 0.76%
viability, T/C [26]: 0.67%
viability, T/C [27]: 1.9%
viability, T/C [28]: 0.61%
viability, T/C [29]: 1.44%
viability, T/C [30]: 0.45%
viability, T/C [31]: 0.43%
viability, T/C [32]: 0.39%
viability, T/C [33]: 0.38%
viability, T/C [34]: 0.33%
viability, T/C [35]: 0.7%
viability, T/C [36]: 0.32%
